“Also recorded” adds a separate entry of the source.
Assays:
Male C57BL/6J mice = assay: naloxone-precipitated morphine withdrawal conditioned-place aversion; format: in vivo, mouse; conditions: 10 mg/kg i.p. 10 min before naloxone 1 mg/kg; morphine 10 mg/kg
Source text: Animals: Male C57BL/6J mice (8 weeks old, Jackson laboratories) were kept in a temperature and humidity-controlled environment and maintained in a 12:12 hr light/dark cycle (lights on at 7:00 AM). Mice were singly-housed for all the studies due to increased aggression following opioid administration and were randomly assigned to treatment groups.
Drugs: (2R,6R)-HNK hydrochloride was synthesized and characterized. Absolute and relative stereochemistry for (2R,6R)-HNK was confirmed by small molecule x-ray crystallography. For the intraperitoneal injections, drugs were dissolved in 0.9% saline and given in a volume of 5 ml/kg.
Precipitated morphine place aversion: The conditioned-place aversion (CPA) protocol was performed in a rectangular three-chambered box (40 cm length×30 cm width×35 cm height; Stoelting Co., Wood Dale, IL, USA) comprised of two equal sized end-chambers (20 cm×18 cm×35 cm) and a central chamber (20 cm×10 cm×35 cm). […] The CPA protocol consisted of a pre-conditioning phase, four saline/morphine administration days in their home cages, a conditioning phase following morphine precipitated withdrawal in the CPA apparatus and a post-conditioning test. […] Time spent in each compartment was measured during both pre- and post-conditioning sessions using TopScan v2.0 (CleverSys, Inc, VA, USA).

Male CD-1 mice = assay: mouse forced swim test, immobility time 24 h after treatment; format: in vivo; conditions: for Holm-Šídák post-hoc comparison, group compared vehicle (p, immobility time) / minimum effective dose to reduce immobility time in the forced swim test / doses at which immobility time in the forced swim test was reduced (effective doses): 24 h after treatment; for minimum effective dose to reduce immobility time in the forced swim test / shape of dose response in the forced swim test / doses at which immobility time in the forced swim test was reduced (effective doses): male mice, i.p.; for shape of dose response in the forced swim test: tested range up to 100 mg/kg; for doses at which immobility time in the forced swim test was reduced (effective doses): relative to vehicle
Description: Animals: Male CD-1 mice (Charles Rivers Laboratories; Raleigh, NC, USA), 8-11 weeks old at the time of testing, were habituated to the University of Maryland (Baltimore, MD, USA) animal facility for at least one week prior to testing. Mice were group housed in cages of 4-5 per cage with a constant 12-hour light cycle (lights on/off at 07:00/19:00). Food and water were available ad libitum. All experiments were performed during the light phase. All studies were approved by the University of Maryland School of Medicine Animal Care and Use Committee and conducted in accordance with the National Institutes of Health Guide for the Care and Use of Laboratory Animals.
Drugs: (2R,6R)-HNK hydrochloride, (2S,6S)-HNK hydrochloride, (2R,6S)-HNK, and (2S,6R)-HNK were synthesized and characterized (molecular structures were confirmed via ^1H and ^13C NMR, the absolute and relative stereochemistry was assigned by x-ray crystallography, and the purity was determined via LC/MS) at the National Center for Advancing Translation Sciences (National Institutes of Health, Rockville, MD, USA). The synthesis and characterization of (2R,6R)-HNK hydrochloride, (2S,6S)-HNK hydrochloride, (2R,6S)-HNK, and (2S,6R)-HNK were performed as previously described in Morris et al., 2017, Org. Lett. 19:4572-4575, which is incorporated by reference herein in its entirety. (5R)-methyl-(2R,6R)-HNK was obtained from Organix Inc. (Woburn, MA, USA). (5R)-methyl-(2R,6R)-HNK can be synthesized according to the method described in Example 1. All compounds were dissolved in 20% (w/v) cyclodextrin (Sigma Aldrich, USA) in saline and administered intraperitoneally (i.p.) in a volume of 7.5 ml/kg.
Forced swim test: Compounds were tested in separate cohorts of male mice (n=10-18/group; only male mice were tested to control for sex-dependent differences in pharmacokinetics and brain levels) and all injections were performed by a experimenter. (2R,6R)-HNK, (2S,6S)-HNK, (2R,6S)-HNK, (2S,6R)-HNK were administered at the doses of 1, 3, 10, 30, and 100 mg/kg. (5R)-methyl-(2R,6R)-HNK was administered at the doses of 0.3, 1, 3, and 10 mg/kg. (2R,6S)-HNK and (2S,6R)-HNK were dosed as a free base whereas (2R,6R)-HNK and (2S,6S)-HNK, and (5R)-methyl-(2R,6R)-HNK were dosed as a hydrochloride salt. Vehicle and (2R,6R)-HNK (30 mg/kg) were included as controls in each cohort. Twenty-four h after treatment, mice were tested in the forced swim test, according to previously described methods. Injections were performed by a experimenter. Briefly, mice were placed into a clear Plexiglass cylinder (20 cm height×15 cm diameter) filled to a depth of 15 cm with water (23±1° C.) and subjected to a 6-min swim session. Swim sessions were recorded using a digital video camera. The time spent immobile (defined as passive floating with no movements other than those necessary to keep the head above water) was scored during the final 4 min of the session. Sessions were scored by a trained experimenter blind to the treatment groups.
Statistical analysis: All experiments and analyses were performed in a blinded and randomized manner. All injections were performed by a experimenter. Statistical analyses were performed using GraphPad Prism software (v8; GraphPad Software, Inc.). All statistical tests were two-tailed, and significance was assigned at p<0.05. Differences in immobility time were analyzed via one-way ANOVA followed by Holm-Šídák post-hoc comparison (with all groups compared to saline control group) when significance was reached. Significant results are indicated with asterisks in the figures (*p<0.05, **p<0.01, ***p<0.001). Data are presented as the mean±standard error of the mean (SEM).

mice = conditions: i.p.; earlier study; cited from earlier work
NMDARs = conditions: read-out: Ki (binding / inhibition of NMDARs); cited from earlier work
[1] = 10 mg/kg, i.p.; cited from earlier work
[2] = i.p.; earlier study; cited from earlier work

| SMILES | naloxone-induced conditioned-place aversion in morphine-dependent mice (Male C57BL/6J mice) | Holm-Šídák post-hoc comparison, group compared vehicle (p, immobility time) (Male CD-1 mice; 1 mg/kg i.p.) | Holm-Šídák post-hoc comparison, group compared vehicle (p, immobility time) (Male CD-1 mice; 3 mg/kg i.p.) | Holm-Šídák post-hoc comparison, group compared vehicle (p, immobility time) (Male CD-1 mice; 10 mg/kg i.p.) | Holm-Šídák post-hoc comparison, group compared vehicle (p, immobility time) (Male CD-1 mice; 100 mg/kg i.p.) | minimum effective dose to reduce immobility time in the forced swim test (Male CD-1 mice) | shape of dose response in the forced swim test (Male CD-1 mice) | lowest dose reducing forced swim test immobility time (mice) | Ki (NMDARs) | estimated concentration in brain tissue [1] | estimated concentration in the extracellular hippocampal space [1] | lowest dose reducing escape failures in the learned helplessness test [2] | Holm-Šídák post-hoc comparison, group compared vehicle (p, immobility time) (Male CD-1 mice; 30 mg/kg i.p.) | fold lower doses than (2R,6R)-HNK for antidepressant-relevant behavioral effects (Male CD-1 mice; forced swim test) | doses at which immobility time in the forced swim test was reduced (effective doses) (Male CD-1 mice) | Holm-Šídák post-hoc comparison, group compared vehicle (p, immobility time) (Male CD-1 mice; 0.3 mg/kg i.p.) | Holm-Šídák post-hoc comparison, group compared vehicle (p, immobility time) (Male CD-1 mice; 3 mg/kg i.p., hydrochloride) | Holm-Šídák post-hoc comparison, group compared vehicle (p, immobility time) (Male CD-1 mice; 3 mg/kg i.p., listed as (5R)-Me-(2R,6R)-HNK, hydrochloride) |
| --- | --- | --- | --- | --- | --- | --- | --- | --- | --- | --- | --- | --- | --- | --- | --- | --- | --- | --- |
| N[C@@]1(c2ccccc2Cl)CCC[C@@H](O)C1=O [(2R,6R)-HNK, (2R,6R)-hydroxynorketamine] | prevents conditioned-place aversion; also recorded: completely prevented | p = 0.2332 | p = 0.2631 | p = 0.0428 | p = 0.0135 | 10 mg/kg | did not demonstrate U-shaped dose responses | 5 mg/kg | > 100 µM | < 20 µmol/kg | < 10 µM | 3 mg/kg |  |  |  |  |  |  |
| N[C@@]1(c2ccccc2Cl)CCC[C@H](O)C1=O [(2R,6S)-HNK] |  | p = 0.0457 | p = 0.0261 | p = 0.0261 | p = 0.4950 | 1 mg/kg | U-shaped dose response curves |  |  |  |  |  | p = 0.4950 | 10 fold | 1 mg/kg |  |  |  |
| N[C@]1(c2ccccc2Cl)CCC[C@@H](O)C1=O [(2S,6R)-HNK] |  | p = 0.8466 | p = 0.0404 | p = 0.0404 | p = 0.8466 | 3 mg/kg | U-shaped dose response curves |  |  |  |  |  | p = 0.8466 |  |  |  |  |  |
| N[C@]1(c2ccccc2Cl)CCC[C@H](O)C1=O [(2S,6S)-HNK, (2S,6S)-hydroxynorketamine] |  | p = 0.9176 | p = 0.8804 | p = 0.9176 | p = 0.0003 | 30 mg/kg | did not demonstrate U-shaped dose responses | 25 mg/kg | 7.34 to 21.2 µM |  |  | 75 mg/kg | p = 0.0013 |  |  |  |  |  |
| C[C@@H]1CC[C@@](N)(c2ccccc2Cl)C(=O)[C@@H]1O.Cl [(5R)-methyl-(2R,6R)-HNK, (2R,5R,6R)-2-amino-2-(2-chlorophenyl)-6-hydroxy-5-methylcyclohexan-1-one hydrochloride] |  | p = 0.0257 |  | p = 0.0026 |  | 1 mg/kg |  |  |  |  |  |  |  |  | 1 to 10 mg/kg | p = 0.8074 | 0.06 | p = 0.0671 |

— patent US20230331655A1, “HYDROXYN[…] AND METHODS OF USE THEREOF” (UNIVERSITY OF MARYLAND, BALTIMORE, priority 2020, published 2023)
